Test results taken from EP4745134A1 (Jiangsu Yahong Meditech Co., Ltd., priority 2023, dated 2025).
Like-named read-outs stand apart in the source and are kept apart here.

Legend:
HCT116 MTAP KO cells = experiment: Inhibitory activity against cell proliferation (CellTiter Glo, 6 days), HCT116 MTAP KO; format: cell-based; conditions: for IC50: HCT116 MTAP KO cells, 6 days, CellTiter Glo, read-out: HCT116 MTAP KO IC50; for Selectivity HCT 116-WT/ HCT116 MTAP KO: ratio of IC50 HCT116-WT / HCT116 MTAP KO
Method in brief: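 Viability IC50s come from CellTiter Glo luminescence after 6 days' exposure to compound (8 concentrations, 4-fold steps, top 10000 nM), relative to DMSO wells. Cells were MTAP-KO or WT HCT116, seeded at 250 per well in McCoy's 5A with 10% FBS and incubated overnight before dosing.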

HCT116-WT cells = experiment: Inhibitory activity against cell proliferation (CellTiter Glo, 6 days), HCT116-WT; format: cell-based; conditions: HCT116-WT cells, 6 days, CellTiter Glo, read-out: HCT116-WT IC50
Procedure: HCT116-WT (ATCC, CCL-247) and HCT116 MTAP KO (Nanjing Cobioer, CBP75002) cells were seeded into white low-transparency sterile 96-well cell culture plates at a density of 250 cells per well respectively, and the culture medium was McCoy's 5A Medium+10% FBS. The plates were placed under the condition of 37°C and 5% CO2 to be cultured overnight. The cells were treated with 4-fold serially diluted compounds of 8 concentration points starting at an initial concentration of 10000 nM, and the last two columns were used as control wells to which only DMSO was added. The drug-treated cells were further cultured for 6 days. On day 7, CellTiter Glo® reagent was added at 50 uL per well, and after reaction under shaking for 10 minutes at room temperature, the chemiluminescence signals were detected for the well plates through the chemiluminescence detection method using a BIOTEK H1 multifunctional microplate-reader. The IC50 values for inhibition of the compounds on cell viability were calculated in X1fit 5.0 software. Table 2. IC50 values for inhibition of the compounds on HCT116 MTAP KO/WT cell growth

Row | Structure (SMILES) | IC50 (HCT116 MTAP KO cells; Homo sapiens, HCT-116, 144 h) | Selectivity HCT 116-WT/ HCT116 MTAP KO (HCT116 MTAP KO cells) | IC50 (HCT116-WT cells; 144 h) | IC50 (HCT116 MTAP KO cells) | IC50 (HCT116-WT cells)
1 | Cc1cc2cc(C(=O)N(Cc3ccc(-c4ccc(N(C)C(C)C)nc4)cn3)N(C)c3ncccn3)ccc2nc1N [Example 257, 2-amino-N-((6'-(isopropyl(methyl)amino) -[3,3'-bipyridin]-6-yl)methyl)-N',3-dimet hyl-N'-(pyrimidin-2-yl)quinoline-6-carbo hydrazide] | 76 nM | 13.42 | 1020 nM | – | –
2 | Cc1cc2cc(C(=O)N(Cc3ccc(-c4ccc(N5CCN(C)C(=O)C5)nc4)cn3)N(C)c3ncccn3)ccc2nc1N [Example 258, 2-amino-N',3-dimethyl-N-((6'-(4-methyl-3-oxopiperazin-1-yl)-[3,3'-bipyridin]-6-yl)methyl)-N'-(pyrimidin-2-yl)quinoline-6-carbohydrazide] | 31 nM | 23.10 | 716 nM | – | –
3 | Cc1cc2cc(C(=O)N(Cc3ccc(-c4ccc(N(C)CCN(C)C)nc4)cn3)N(C)c3ncccn3)ccc2nc1N [Example 260, 2-amino-N-((6'-((2-(dimethylamino)ethyl)(methyl)amino)-[3,3'-bipyridine]-6-yl)methyl) -N', 3-dimethyl-N'-(pyrimidin-2-yl)quinoline-6-carbohydrazide] | 21 nM | 22.14 | 465 nM | – | –
4 | Cc1cc2cc(C(=O)N(Cc3ccc(I)cn3)N(C)c3ncccn3)ccc2nc1N [Example 263, 2-amino-N-((5-iodopyridin-2-yl)methyl)-N',3-dimethyl-N'-(pyrimidin-2-yl)quinoline-6-carbohydrazide] | 17 nM | 23.76 | 404 nM | – | –
5 | CN(c1ccccc1F)N(Cc1ccc(C(F)(F)F)cn1)C(=O)c1ccc2nc(N)c3cnn(C)c3c2c1 [Example 281, 4-amino-N'-(2-fluorophenyl)-N',1-dimethyl-N-((5-(trifluoromethyl)pyridin-2-yl)methyl)-1H-pyrazolo[4,3-c]quinoline-8-carb ohydrazide] | 3.3 nM | 12.73 | 42 nM | – | –
6 | Cc1cc2cc(C(=O)N(Cc3ccc(C(C)(C)F)cn3)N(C)c3ncccn3)ccc2nc1N [Example 288, 2-amino-N-((5-(2-fluoroprop-2-yl)pyridin-2-yl)methyl)-N',3-dimethyl-N'-(pyrimidin-2-yl)quinoline-6-carbohydrazide] | 66 nM | 28.91 | 1910 nM | – | –
7 | Cc1cc2cc(C(=O)N(Cc3ccc(C(F)(F)C(F)(F)F)cn3)N(C)c3ncccn3)ccc2nc1N [Example 293, 2-amino-N,3-dimethyl-N-((5-(perfluoroethyl)pyridin-2-yl)methyl)-N-(pyrimidin-2-yl)q uinoline-6-carbohydrazide] | 25 nM | 26.64 | 666 nM | – | –
8 | [2H]C([2H])([2H])c1cc2cc(C(=O)N(Cc3ccc(C(F)(F)F)cn3)N(C)c3ncccc3F)ccc2nc1N [Example 309, 2-amino-N'-(3-fluoropyridin-2-yl)-N'-methyl-3-(methyl-d3)-N-((5-(trifluoromethyl)pyridin-2-yl)methyl)quinoline-6-carbohydrazide] | 30 nM | 15.53 | 466 nM | – | –
9 | [2H]C([2H])([2H])c1cc2cc(C(=O)N(Cc3ccc(C(F)(F)F)cn3)Nc3ncccn3)ccc2nc1N [Example 312, 2-amino-3-(methyl-D3)-N'-(pyrimidin-2-yl)-N-((5-(trifluoromethyl)pyridin-2-yl)methyl)quinoline-6-carbohydrazide] | 94 nM | 32.33 | 3040 nM | – | –
10 | [2H]C([2H])([2H])c1cc2cc(C(=O)N(Cc3ccc(-c4nncs4)cn3)N(c3ncccn3)C3CC3)ccc2nc1N [Example 315, N-((5-(1,3,4-thiadiazol-2-yl)pyridin-2-yl)methyl)-2-amino-N'-cyclopropyl-3-(methyl-d3)-N'-(pyrimidin-2-yl)quinoline-6-carbohydrazide] | 54 nM | 24.96 | 1350 nM | – | –
11 | Cc1cc2nc(N)c3cnn(C)c3c2cc1C(=O)N1CC(O)(C(F)(F)F)CN1c1ncccc1F (stereo not drawn) [Example 355, (4-amino-1,7-dimethyl-1H-pyrazolo[4,3-c]quinolin-8-yl)(2-(3-fluoropyridin-2-yl)-4-hydroxy-4-(trifluoromethyl)pyrazolidin-1-yl)methanone] | 150 nM | 32.00 | 4800 nM | – | –
12 | Cc1cc2nc(N)c3cnn(C)c3c2cc1C(=O)N1C(C)CCN1c1ncccc1F (stereo not drawn) [Example 376, (4-amino-1,7-dimethyl-1H-pyrazolo[4,3-c]quinolin-8-yl)(2-(3-fluoropyridin-2-yl)-5-methylpyrazolidin-1-yl)methanone] | – | 35.48 | – | 105 nM | 3720 nM
13 | Cc1cc2nc(N)c3cnn(C)c3c2cc1C(=O)N1CC(C)CN1c1ncc(Cl)cc1F (stereo not drawn) [Example 394, (4-amino-1,7-dimethyl-1H-pyrazolo[4,3-c]quinolin-8-yl)(2-(5-chloro-3-fluoropyridin-2-yl)-4-methylpyrazolidin-1-yl)metha none] | 16 nM | 44.81 | 717 nM | – | –
14 | Cn1ncc2c(N)nc3cc(Cl)c(C(=O)N4CC(C)(F)CN4c4ncc(Br)cc4F)cc3c21 (stereo not drawn) [Example 420, (4-amino-7-chloro-1-methyl-1H-pyrazolo [4,3-c]quinolin-8-yl)(2-(5-bromo-3-fluor opyridin-2-yl)-4-fluoro-4-methylpyrazolidin-1-yl)methanone] | 26 nM | 28.58 | 743 nM | – | –
15 | Cn1ncc2c(N)nc3cc(Cl)c(C(=O)N4CC(C)(F)CN4c4cccc(F)n4)cc3c21 (stereo not drawn) [Example 426, (4-amino-7-chloro-1-methyl-1H-pyrazolo [4,3-c]quinolin-8-yl)(4-fluoro-2-(6-fluoropyridin-2-yl)-4-methylpyrazolidin-1-yl)m ethanone] | 49 nM | 14.29 | 700 nM | – | –
16 | COC1(C)CN(C(=O)c2cc3c(cc2C)nc(N)c2cnn(C)c23)N(c2ncccc2F)C1 (stereo not drawn) [Example 428, (4-amino-1,7-dimethyl-1H-pyrazolo[4,3-c]quinolin-8-yl)(2-(3-fluoropyridin-2-yl)-4-methoxy-4-methylpyrazolin-1-yl)methanone] | 12 nM | 26.75 | 321 nM | – | –
17 | COC1CN(C(=O)c2cc3c(cc2C)nc(N)c2cnn(C)c23)N(c2ncc(Br)cc2F)C1 (stereo not drawn) [Example 438, (4-amino-1,7-dimethyl-1H-pyrazolo[4,3-c]quinolin-8-yl)(2-(5-bromo-3-fluoropyridin-2-yl)-4-methoxypyrazolidin-1-yl)met hanone] | 40 nM | 37.65 | 1510 nM | – | –
18 | Cc1cc2nc(N)c3cnn(C)c3c2cc1C(=O)N1CCCN1c1ncc(C2=CCN(C)CC2)cc1F [Example 470, (4-amino-1,7-dimethyl-1H-pyrazolo[4,3-c]quinolin-8-yl)(2-(5-fluoro-1'-methyl-1', 2',3',6'-tetrahydro-[3,4'-bipyridine]-6-yl)pyrazolidin-1-yl)methanone] | 94 nM | 32.33 | 3040 nM | – | –
19 | Cc1cc2nc(N)c3cnn(C)c3c2cc1C(=O)N1CCCN1c1ncc(-c2cnn(C)c2)cc1F [Example 471, (4-amino-1,7-dimethyl-1H-pyrazolo[4,3-c]quinolin-8-yl)(2-(3-fluoro-5-(1-methyl-1H-pyrazol-4-yl)pyridin-2-yl)pyrazolidin-1-yl)methanone] | 97 nM | 60.37 | 5860 nM | – | –
20 | Cc1cc2nc(N)c3cnn(C)c3c2cc1C(=O)N1CCCN1c1ncc(-c2cnn(C(F)(F)F)c2)cc1F [Example 480, (4-amino-1,7-dimethyl-1H-pyrazolo[4,3-c]quinolin-8-yl)(2-(3-fluoro-5-(1-(trifluor omethyl)-1H-pyrazol-4-yl)pyridin-2-yl)pyrazolidin-1-yl)methanone] | 55 nM | 32.16 | 1770 nM | – | –
21 | Cc1cc2nc(N)c3cnn(C)c3c2cc1C(=O)N1CCCN1c1ncc(-c2cnc3c(cnn3C)c2)cc1F [Example 482, (4-amino-1,7-dimethyl-1H-pyrazolo[4,3-c]quinolin-8-yl)(2-(3-fluoro-5-(1-methyl-1H-pyrazolo[3,4-b]pyridin-5-yl)pyridin-2-yl)pyrazolidin-1-yl)methanone] | 60 nM | 89.47 | 5370 nM | – | –
22 | Cc1cc2nc(N)c3cnn(C)c3c2cc1C(=O)N1CCCN1c1ncc(-c2ccsc2)cc1F [Example 483, (4-amino-1,7-dimethyl-1H-pyrazolo[4,3-c]quinolin-8-yl)(2-(3-fluoro-5-(thien-3-yl)pyridin-2-yl)pyrazolidin-1-yl)methanone] | 100 nM | 41.72 | 4170 nM | – | –
